Entries after “also recorded” stand apart in the source; their conditions may differ.
Key:
MAPK (ERK 1/2) = assay: Western blot of MAPK (pERK 1/2) in OSM-stimulated pig articular chondrocytes; assay type: cell-based
Experimental: For standard western blot, treated and non-treated cells were lysed in RIPA Lysis and Extraction Buffer (Pierce, Rockford, IL) containing protease inhibitors (Pierce) followed by sonication with a 15-second pulse at a power output of 2 using the VirSonic 100 (SP Industries Company, Warminster, PA). Protein concentrations were determined by BCA protein assay (Pierce). Proteins were resolved with SDS-PAGE utilizing 4-15% Mini-PROTEAN TGX Precast Gels and transferred to Trans-Blot Turbo Transfer Packs with a 0.2-μm pore-size nitrocellulose membrane. The SDS-PAGE running buffer, 4-15% Mini-PROTEAN TGX Precast Gels, Trans-Blot Turbo Transfer Packs with a 0.2-μm pore-size nitrocellulose membrane was purchased from Biorad (Hercules, CA). Nitrocellulose membranes were blocked in 5% nonfat milk in 0.05% (v/v) Tween 20 (PBST) (Corning, Manassas, VA). Membranes were then incubated with primary antibodies p-gp130 Y814 (Evseenko lab, AbClonal), p-AKT (cat #4060, Cell Signaling), p-ERK 1/2 (cat #9106, Cell Signaling), p-Y416-SRC (cat #1246F, Novus Biologicals), p-gp130 (cat #1453R, Bioss USA) and p-NFκBp65 (cat #8242, Cell Signaling), and/or YAP1 (cat #4912, Cell Signaling). Histone H3 (cat #9515, Cell Signaling) was used as loading control. […] Quantification of blots was performed using ImageJ 1.44 followed by Prism9 for analysis.

[1] = biological target: T1, heterodimerization of gp130 with IL-6 family of cytokines' alpha receptors (Homo sapiens, UniProt P40189); assay: Receptor-competition assay (co-IP of gp130 FLAG with alpha receptors); assay type: cell-based; details: articular chondrocytes transfected with gp130 FLAG, different doses, 4 and 24 hours
T1 construct: A plasmid encoding full-length gp130 (WTgp130; InVivoGen) was used to create the 5 mutants; expressed in transfected cells
Experimental: IP Western, SDS-PAGE and Western blot analysis. For transfections of gp130 wild type (WT) (InVivoGen) and gp130 mutant plasmids (Thermo Scientific), cells were plated 24 h prior to transfection to produce monolayers that were 60% confluent and these were transfected by using Turbo DNAfectin 3000 (cat #G3000, Lambda Biotech) according to the manufacturer's protocol. 72h after transfection, cells were maintained in DMEM (10% FBS, 1% PSA) and were either left untreated or were stimulated with IL-6 (10 ng/mL) and/or OSM (10 ng/mL) for 24 h before cell harvest and protein extraction. For immunoprecipitation assays, cell lysates were incubated with Protein G Agarose (cat #20398, Pierce) and anti-Flag antibody (cat #2368, Cell Signaling) at 4° C. overnight. The immune complexes were sedimented, washed and separated by SDS-PAGE (see below) and further analyzed by Western blot using p-SRC (pY416-SRC) (cat #1246F, Novus Biologicals) or NEMO (cat #18474-1-AP, Proteintech) antibodies and normalized to gp130 (cat #bs-1459R, Bioss) or total SRC (cat #2123, Cell Signaling). For R805 treatment, the immune complexes were sedimented, washed and separated by SDS-PAGE and further analyzed by Western blot using OSMR (cat #ab85575, Abcam), LIFR (Santa cat #515337, Cruz Biotechnology) or p-SRC (pY416-SRC) (Novus Biologicals, cat #1246F). […]

[2] = test system: bearded dragon (Pogona vitticeps) amputated tail; assay: Lizard tail healing model; assay type: in vivo; details: 14 days post-amputation
Experimental: Lizard Tail Healing Model. Captive bred and raised bearded dragon lizards (Pogona vitticeps) were maintained at 25.5° C. with 65% humidity on a 12 hr light/12 hr dark schedule with UVB lamp (Zoo Med) treatment during daylight hours. Care and experimental use of lizards was conducted in accordance with Institutional Animal Care and Use Committee (IACUC). Lizard tails were amputated halfway along lengths with scalpels To systemically deplete macrophage populations, lizards received intraperitoneal (IP) injections of L-α-phoshatidylcholine/cholesterol liposomes containing clodronate (0.125 mg/g) as previously described (Londono et al. J Immunol Regen Med. 2020). Control animals were treated with liposomes containing PBS instead of clodronate. Lizards were treated with R805 drug via daily direct injection (1 pmol drug) into amputated tail stumps. Lizard tail samples were collected 14 days following original tail amputation. Collected tail samples were photographed using an Olympus SZX16 stereo microscope. Images were uploaded in ImageJ (NIH, Bethesda MD) and quantified using the measure command. For labeling of proliferating cell populations with 5-ethynyl-2′-deoxyuridine (EdU) (ThermoFisher Scientific), animals received IP injections of EdU (50 mg/kg) four hours prior to sample collection. Samples to be analyzed via histology were fixed overnight in 4% paraformaldehyde, decalcified for 3 weeks in 10% EDTA (pH 7.4), equilibrated to 30% sucrose, embedded in optimal cutting temperature compound (OCT, Tissue-Tek), crypsectioned at 16 μm thickness, mounted on glass slides, and stained with 4′,6-diamidino-2-phenylindole (DAPI). Samples were stained with Masson's trichrome (American Mastertech) according to the manufacturer's instructions or immunostained for CTSK (Abcam antibody ab19027, used at 1:1000). Images were captured with an Olympus CKX41 microscope outfitted with a Keyence BZ-X800 microscope, and the areas of EdU signal were quantified with ImageJ. Statistical analysis was performed using Prism 7 with one or two-way ANOVA with pairwise Tukey's multiple comparison test for data with multiple groups. A p-value of <0.05 was deemed to be statistically significant. All values and graphs are shown as mean±SD.

c-MYC = assay: Western blot of c-MYC in pig articular chondrocytes; assay type: cell-based
pNF-κB p65 = assay: Western blot of pNF-κB p65 in pig articular chondrocytes; assay type: cell-based; details: pig articular chondrocytes, OSM, 24 hours
Experimental: For standard western blot, treated and non-treated cells were lysed in RIPA Lysis and Extraction Buffer (Pierce, Rockford, IL) containing protease inhibitors (Pierce) followed by sonication with a 15-second pulse at a power output of 2 using the VirSonic 100 (SP Industries Company, Warminster, PA). Protein concentrations were determined by BCA protein assay (Pierce). Proteins were resolved with SDS-PAGE utilizing 4-15% Mini-PROTEAN TGX Precast Gels and transferred to Trans-Blot Turbo Transfer Packs with a 0.2-μm pore-size nitrocellulose membrane. The SDS-PAGE running buffer, 4-15% Mini-PROTEAN TGX Precast Gels, Trans-Blot Turbo Transfer Packs with a 0.2-μm pore-size nitrocellulose membrane was purchased from Biorad (Hercules, CA). Nitrocellulose membranes were blocked in 5% nonfat milk in 0.05% (v/v) Tween 20 (PBST) (Corning, Manassas, VA). Membranes were then incubated with primary antibodies p-gp130 Y814 (Evseenko lab, AbClonal), p-AKT (cat #4060, Cell Signaling), p-ERK 1/2 (cat #9106, Cell Signaling), p-Y416-SRC (cat #1246F, Novus Biologicals), p-gp130 (cat #1453R, Bioss USA) and p-NFκBp65 (cat #8242, Cell Signaling), and/or YAP1 (cat #4912, Cell Signaling). Histone H3 (cat #9515, Cell Signaling) was used as loading control. After washing in PBS containing 0.05% (v/v) Tween 20 (PBST), membranes were incubated with rabbit (cat #31460, Thermo Scientific) or mouse IgG-HRP (cat #31430, Thermo Scientific) secondary antibodies. After washing, membranes were developed with the Clarity Western ECL Blotting Substrate (Hercules, CA). Quantification of blots was performed using ImageJ 1.44 followed by Prism9 for analysis.

T1 sequence (P40189 23-918, one chain of several): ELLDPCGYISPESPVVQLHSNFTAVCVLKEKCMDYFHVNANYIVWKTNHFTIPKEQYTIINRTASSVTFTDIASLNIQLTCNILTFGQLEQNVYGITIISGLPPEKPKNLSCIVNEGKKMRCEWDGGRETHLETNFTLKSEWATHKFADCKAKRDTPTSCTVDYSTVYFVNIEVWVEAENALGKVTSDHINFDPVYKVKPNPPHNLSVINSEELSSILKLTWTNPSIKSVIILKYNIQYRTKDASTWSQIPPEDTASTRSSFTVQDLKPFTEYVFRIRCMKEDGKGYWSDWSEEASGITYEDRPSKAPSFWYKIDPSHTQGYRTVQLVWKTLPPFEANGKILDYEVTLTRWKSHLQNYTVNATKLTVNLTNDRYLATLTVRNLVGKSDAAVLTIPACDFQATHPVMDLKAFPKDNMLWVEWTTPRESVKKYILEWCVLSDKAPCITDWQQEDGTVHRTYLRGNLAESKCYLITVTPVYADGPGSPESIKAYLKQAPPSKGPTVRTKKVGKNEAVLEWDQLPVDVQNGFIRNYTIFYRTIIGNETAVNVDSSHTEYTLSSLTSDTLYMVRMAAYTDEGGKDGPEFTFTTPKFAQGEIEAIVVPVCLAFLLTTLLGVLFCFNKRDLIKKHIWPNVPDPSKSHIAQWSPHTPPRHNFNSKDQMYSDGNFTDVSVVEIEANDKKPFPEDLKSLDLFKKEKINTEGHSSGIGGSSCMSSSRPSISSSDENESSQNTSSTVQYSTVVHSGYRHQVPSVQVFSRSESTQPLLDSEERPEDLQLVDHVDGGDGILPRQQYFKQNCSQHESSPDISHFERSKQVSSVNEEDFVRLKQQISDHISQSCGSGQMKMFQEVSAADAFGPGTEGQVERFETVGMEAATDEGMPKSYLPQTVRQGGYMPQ

## Cc1ccc(-c2csc(NC(=O)c3ccccn3)n2)cc1 [Peptide R805]
MAPK (ERK 1/2)
  MAPK (pERK 1/2) activation induced by OSM: markedly suppressed
[1]
  IL-6 family-induced heterodimerization of gp130 with α-receptors: markedly suppressed; also recorded: inhibits heterodimerization of gp130 with IL-6 family of cytokines' alpha receptors
[2]
  CTSK+ macrophage recruitment to amputation site: exhibited CTSK+ macrophage populations that extended into new tissue areas distal to amputation planes
  proliferating EdU+ cells: significantly higher numbers of proliferating EdU+ wound epithelium and periosteal cells
[2]; R805 co-treated with clodronate liposomes
  tail tissue regrowth under macrophage depletion: co-treatment with clodronate liposomes inhibited R805-induced tissue regrowth
[2]; daily direct injection into amputated tail stump
  tail tissue regeneration (gross morphology, Masson's trichrome): resulted in tissue regeneration as evidenced by blastema-like structures; also recorded: enhances lizard tail regeneration in a macrophage-dependent manner
c-MYC
  protein levels of c-MYC (MYC signaling): does not activate MYC signaling
pNF-κB p65
  protein levels of pNF-κB p65 after OSM stimulation: markedly suppressed

From US20240182526A1, “COMPOSITIONS AND METHODS FOR MODULTING INFLAMMATORY AND DEGENERATIVE DISORDER” (University of Southern California, priority 2021, published 2024)
